Read-outs that look alike come from different tables or passages of the source.
Key:
acetylcholinesterase = acetylcholinesterase (Homo sapiens, UniProt P22303); settings: estimated (Gobburu et al. 2001); cited from earlier work
sigma one receptor [1] = molecular target: T1, sigma one receptor (Rattus norvegicus, UniProt Q9R0C9); assay: Dextromethorphan binding studies with rat brain (Klein and Musacchio 1992)
T1 construct: host or cells: rat brain

sigma one receptor [2] = molecular target: T1, sigma one receptor; settings: read-out: dissociation constant (Kd); binding studies with rat brain; cited from earlier work
[3] = assumed value from literature; cited from earlier work
[4] = cited from earlier work
[5] = Alzheimer's disease patients, 2 mg i.v. dose (Hossain et al. 2002)

T1 sequence (Q9R0C9 whole entry): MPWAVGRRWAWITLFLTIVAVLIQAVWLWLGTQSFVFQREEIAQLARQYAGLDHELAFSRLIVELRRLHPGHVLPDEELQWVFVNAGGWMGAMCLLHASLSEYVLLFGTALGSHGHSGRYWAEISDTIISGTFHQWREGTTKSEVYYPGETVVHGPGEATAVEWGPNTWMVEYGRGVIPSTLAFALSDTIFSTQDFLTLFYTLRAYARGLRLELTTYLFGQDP
acetylcholinesterase, sequence (P22303 32-614): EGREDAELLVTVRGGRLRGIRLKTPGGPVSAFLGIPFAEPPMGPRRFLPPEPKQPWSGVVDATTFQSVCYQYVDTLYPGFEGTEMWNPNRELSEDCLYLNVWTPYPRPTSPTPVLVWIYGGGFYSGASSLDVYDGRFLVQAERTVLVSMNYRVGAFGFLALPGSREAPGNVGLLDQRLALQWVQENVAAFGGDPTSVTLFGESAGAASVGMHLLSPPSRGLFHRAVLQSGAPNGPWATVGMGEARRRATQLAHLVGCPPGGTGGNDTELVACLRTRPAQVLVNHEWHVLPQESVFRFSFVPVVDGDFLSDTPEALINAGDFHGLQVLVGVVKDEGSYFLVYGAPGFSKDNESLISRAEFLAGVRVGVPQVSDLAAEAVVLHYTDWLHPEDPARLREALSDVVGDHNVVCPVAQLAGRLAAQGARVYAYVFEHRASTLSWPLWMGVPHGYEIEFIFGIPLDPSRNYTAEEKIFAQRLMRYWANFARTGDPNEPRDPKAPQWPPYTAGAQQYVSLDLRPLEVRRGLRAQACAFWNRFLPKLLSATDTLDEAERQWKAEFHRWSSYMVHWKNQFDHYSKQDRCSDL

Question: Which “potency, times less than rivastigmine” value (acetylcholinesterase) does the source give for C[C@@H](c1cccc(O)c1)N(C)C [NAP 226-90, 3-[(1S)-1-(dimethylamino)ethyl]phenol] here?
Answer: Its value is 10 times.

Question: With COc1ccc2c(c1)[C@]13CCCC[C@@H]1[C@H](C2)N(C)CC3 [dextromethorphan] as the molecule, how does the Kd (sigma one receptor [1]) read?
Answer: The Kd was roughly 19.9 nM.

Question: What about the Kd (sigma one receptor [2]) of the same molecule?
Answer: Its Kd is 20 nM.

Question: What about the systemic clearance [3] of the same molecule?
Answer: Its systemic clearance is “about 23 mL/min/kg”.

Question: Which “variation of intrinsic clearance (CL)” value ([4]; Alzheimer's disease patients (Hossain et al. 2002)) does the source give for CCN(C)C(=O)Oc1cccc([C@H](C)N(C)C)c1 [rivastigmine, Rivastigmine] here?
Answer: The value was “up to 4 fold”.

Question: And the CL [4, 5]?
Answer: Its CL is 21.6 to 82.8 L/h.

Question: And the Vz [4, 5]?
Answer: Its Vz is 53.2 to 227 L.
